Test results: US8017828B2, “Utilization of rare sugars in plant or microorganism” (Shikoku Research Institute Incorporated, priority 2004, dated 2011)

Key:
Format in all cases: in vivo
[1] = test system: strawberry plant (variety: “smile ruby”); test: Foliar spraying of sugar on potted strawberry, fruit harvest; details: 0.5% (w/v) sprayed three times weekly
Experimental: A strawberry plant (variety: “smile ruby”) was used in an experiment. The strawberry plants were planted in pots and from Feb. 13, 2004, while the cultivation was carried out in a glass house, water or a 0.5% (w/v) sugar solution was sprayed onto the whole plant on a three times weekly basis. As for the types of sugars, D-glucose and D-psicose were used and two pots were cultivated for each test plot. While the cultivation was continued, the number of fruits, the weight of fruits, the sugar content of fruits were measured with regard to the fruits that could be harvested by Mar. 25, 2004.

[2] = test system: Arabidopsis thaliana Lan dsberg erecta (LER); test: Germination of Arabidopsis thaliana with 8 ketoses; details: 100 mM aqueous solution
Experimental: An effect of 8 types of ketoses on germination of Arabidopsis thaliana LER series which was an experimental plant was examined.
Two sheets of filter paper were placed in a dish with a diameter of 3.5 cm, and 30 seeds of Arabidopsis thaliana Lan dsberg erecta (LER) were sown per dish, and 0.5 mL of a treatment liquid was poured therein. Then, the dishes were placed in an environment control chamber under the condition of a constant temperature of 25° C. and 24-hour day length (fluorescent lamp, 70 μmol/m^2/s). After the sowing, a survey was carried out with regard to the number of seeds that germinated at 24-hour interval. As the treatment liquid, 100 mM, 10 mM and 1 mM aqueous solutions of any of D-fructose, D-psicose, D-tagatose, D-sorbose, L-fructose, L-psicose, L-tagatose and L-sorbose, and distilled water were used. The procedure was repeated three times for the respective treatment liquids.

Fusarium oxysporum = test: Table 12: plants with or without Fusarium oxysporum, seed and medium treated with D-psicose
[3] = test system: strawberry plant (variety: “Sachinoka”); test: Spraying of sugar solution during soilless culture of strawberry; details: 0.2% (w/v) sprayed weekly
Experimental: In the process of cultivation of strawberry, an effect of spraying D-psicose was examined.
A strawberry plant (variety: “Sachinoka”) was used in an experiment. Strawberry seedlings were transplanted for permanent planting to a mixed culture medium of rockwool and peat moss, and then, by using Otsuka A prescription hydroponic nutrient solution, soilless culture was carried out in a glass house. During the cultivation, on a weekly basis, water, a 0.2% (w/v) D-glucose solution or a 0.2% (w/v) D-psicose solution was sprayed onto the whole plant. As for the number of strawberry plants, 17, 19 and 18 plants were used for the groups, respectively, and permanent planting was carried out on Sep. 24, 2004, and spraying was started from Oct. 22, 2004. A survey was carried out with regard to the growth conditions, the yield of fruits, the quality of fruits and the like by Mar. 7, 2005.

[4] = test system: eggplant plant (variety: “Senryo NiGo”); test: Spraying of sugar solution during eggplant cultivation; details: 0.2% (w/v) sprayed weekly
Experimental: In the process of cultivation of eggplant, an effect of spraying D-psicose was examined.
An eggplant plant (variety: “Senryo NiGo”) was used in an experiment. Eggplant seedlings were transplanted for permanent planting to No. 7 unglazed pots filled with “Hana to Yasai no Tsuchi (garden soil for flowers and vegetables)” and a cultivation test was carried out in a vinyl house equipped with a heating device. As a fertilizer, 4 granules of IB compound fertilizer per pot were given around the roots, and irrigation was carried out by automatically feeding 500 ml of water twice a day. During the cultivation, on a weekly basis, water, a 0.2% (w/v) D-glucose solution or a 0.2 (w/v) D-psicose solution was sprayed onto the whole plant. As for the number of eggplant plants, 10 plants were used for each group, and the cultivation was carried out twice, i.e., in summer (from May 14 to Jul. 15, 2004) and in winter (from Nov. 4, 2004 to Feb. 24, 2005). A survey was carried out with regard to the growth conditions during the cultivation and yield of fruits.

Vitis kiusiana Momiyama = test: Bud flush of dormant branch cuttings of wild grape
Experimental: Matured branches of a Japanese wild grape Vitis kiusiana Momiyama, in which rooting of cuttings is difficult (Mochioka et al., Plant Tissue Culture 13: 139-145, 1996; Journal of ASEV JAPAN 13: 2-8, 2002) and dormancy of buds is deep (Mochioka et al., Journal of Japanese Society for Horticultural Science, 65: 49-54, 1996) were collected in January during the dormant stage, and stored under refrigeration in such a manner that they were not dried. On March 11, they were prepared to have one bud. After each cutting base was immersed in a 3% aqueous solution of D-psicose (supplemented with a spreading agent, Approach BI at 0.2%) for 24 hours, on the following day March 12, it was planted in a Vermiculite bed and placed in a temperature-controlled chamber at 25° C. and 16-hour day length, and the bud flush rate with time was measured. The timing of bud flush was determined to be a time when bud scale leaves fall off and about 50% of the tomentum that protects the bud appears. In a control plot, the cutting base was immersed in distilled water supplemented with 0.2% Approach BI for 24 hours, and then, subjected to the same treatment as described above.
In the survey of the bud flush rate, 9 cuttings were used for each plot and the procedure was repeated three times and an average was obtained.

lipoxygenase gene = test: Northern blotting of lipoxygenase gene expression in sprayed cut leaves of rough lemon; details: 0.5 mM sprayed on cut leaves, 2 to 48 hours
Experimental: Cut leaves of rough lemon were treated by spraying each of 0.5 mM L-psicose, L- & D-tagatose and D-sorbose thereon and were let stand for 2, 4, 6, 12, 24 and 48 hours at 24° C. under the dark condition in a moist chamber. Then, from the treated leaves, total RNA was extracted and the expression of genes of lipoxygenase and chitinase was analyzed by Northern blotting. The assays and analyses were repeated at least 3 times in all the treated plots, and equivalent results were obtained.

[5] = Fusarium oxysporum added, D-psicose seed 0.01%, medium 0.01%
[6] = Fusarium oxysporum added, D-psicose seed 0.01%, medium non
[7] = Fusarium oxysporum added, D-psicose seed 0.10%, medium 0.10%
[8] = Fusarium oxysporum added, D-psicose seed 0.10%, medium non
[9] = Fusarium oxysporum without addition, D-psicose seed 0.10%, medium non

O=C(CO)[C@H](O)[C@H](O)[C@H](O)CO [D-psicose]
average weight of fruits ([1]; increased from 13.5 g): 16.6 g
number of fruits that could be harvested during the cultivation period ([1]; increased from 25): 38
total weight of fruits that could be harvested ([1]; increased from 337.8 g): 630.3 g
inhibition of germination [2]: clearly inhibited
Aerial part weight (Fusarium oxysporum; [5]): 3.1 g
Leaf browning ratio (Fusarium oxysporum; [5]): 5%
Plant length (Fusarium oxysporum; [5]): 17.6 cm
Survival rate (Fusarium oxysporum; [5]): 50%
Vascular bundle browning ratio (Fusarium oxysporum; [5]): 45%
Aerial part weight (Fusarium oxysporum; [6]): 1.9 g
Leaf browning ratio (Fusarium oxysporum; [6]): 100%
Plant length (Fusarium oxysporum; [6]): 14.5 cm
Survival rate (Fusarium oxysporum; [6]): 28%
Vascular bundle browning ratio (Fusarium oxysporum; [6]): 39%
Aerial part weight (Fusarium oxysporum; [7]): 3.3 g
Leaf browning ratio (Fusarium oxysporum; [7]): 13%
Plant length (Fusarium oxysporum; [7]): 13.8 cm
Survival rate (Fusarium oxysporum; [7]): 25%
Vascular bundle browning ratio (Fusarium oxysporum; [7]): 38%
Aerial part weight (Fusarium oxysporum; [8]): 2.2 g
Leaf browning ratio (Fusarium oxysporum; [8]): 100%
Plant length (Fusarium oxysporum; [8]): 13.9 cm
Survival rate (Fusarium oxysporum; [8]): 16%
Vascular bundle browning ratio (Fusarium oxysporum; [8]): 60%
Aerial part weight (Fusarium oxysporum; [9]): 2.2 g
Leaf browning ratio (Fusarium oxysporum; [9]): 0%
Plant length (Fusarium oxysporum; [9]): 17.8 cm
Survival rate (Fusarium oxysporum; [9]): 100%
Vascular bundle browning ratio (Fusarium oxysporum; [9]): 0%
acidity in the fruit [3]: improvement
content of vitamin C in the fruit [3]: improvement
flower-bud formation [3]: promotion
growth and total yield [3]: no significant difference
harvesting time [3]: acceleration
significant effect of spraying on cultivation ([4]; summer): not observed
growth (aerial part weight and underground part weight) ([4]; winter): promotion of the growth
yield of fruits ([4]; winter): increase
bud flush rate compared with control plot (Vitis kiusiana Momiyama; 3% aqueous solution 24 hours, whole period): higher
timing of bud flush (Vitis kiusiana Momiyama; cutting base immersed in 3% aqueous solution 24 hours, control mid-April): from late March
induction of the expression of lipoxygenase gene, persistency (lipoxygenase gene): maintained for the longest time
